Results: US9993480B2, “mTOR/JAK inhibitor combination therapy” (NOVARTIS PHARMA AG, priority 2011, dated 2018)
Values joined by “and” are separate entries in the source; they are usually repeats but may differ in a detail not shown here. Equal entries are not always repeated. “Also recorded” adds a separate entry of the source. Where two headings read alike, the source gives them in different places.

Experiments:
[1] = test system: SET2 cells; test: Proliferation inhibition assay (WST-1); type: cell-based, human
Description: (§1) The HEL, SET2 and K562 human cell lines were purchased from the German Collection of Microorganisms and Cell Cultures (DSMZ, Braunschweig, Germany). Murine BaF/3 and BaF/3-EPOR cells expressing JAK2 wild-type (wt) or JAK2V617F were donated by R. Skoda (Basel, Switzerland).

[2] = test system: Peripheral Blood mononuclear cells from PV patients; test: EEC colony formation assay; type: cell-based; details: Homo sapiens
[3] = test system: SET2 cells; test: Apoptosis by Annexin V flow cytometry; type: cell-based, human; details: SET2 cells exposed for 48 h
Description: Results are expressed ad percent viable cells compared to control wells containing vehicle (DMSO) only. The fraction of necrotic cells was identified as the double-positive Annexin V/propidium iodide cells.

[4] = test system: JAK2, STAT5, and 4EBP1 in SET2 cells; test: Western blot of mTOR and JAK/STAT signaling; type: cell-based, human
Procedure: (§2) Cells were resuspended in RIPA lysis buffer (50 mM pH 7.4 Tris-HCl, 150 mM NaCl, 1% NP-40, 1 mMEDTA) containing a proteinase inhibitor cocktail (Halt Protease Inhibitor Cocktail Kit, PIERCE, Rockford, Ill., US) and subjected to sodium dodecyl sulphate polyacrylamide gel electrophoresis separation and western blotting onto Immunoblot PVDF membrane (BioRad, Hercules, Calif., US), according to standard protocols.
SET2 cells were incubated for 24 h with increasing concentrations of the drugs, and the level of total and phosphorylated JAK2, STAT5, and 4EBP1 was analyzed by western blot. Tubulin was used for loading normalization.

[5] = test system: K562 cells; test: Clonogenic assay in agar; details: Homo sapiens, K562, 168 h, read-out: IC50, clonogenic assay
[6] = test system: HEL cells; test: Clonogenic assay in agar; details: Homo sapiens, 168 h, read-out: IC50, clonogenic assay
[7] = test system: SET2 cells; test: Clonogenic assay in agar
[8] = test system: HEL cells; test: Proliferation inhibition assay (WST-1); type: cell-based, human
Description: as §1

[9] = test system: K562 cells; test: Proliferation inhibition assay (WST-1); type: cell-based, human
Description: as §1

[10] = test system: BaF/3 cells expressing JAK2 wild-type; test: Proliferation inhibition assay (WST-1); type: cell-based, murine; details: Mus musculus, BaF3; BaF/3 WT; mIL-3 in culture medium
Description: as §1

[11] = test system: BaF/3 cells expressing JAK2V617F; test: Proliferation inhibition assay (WST-1); type: cell-based, murine; details: Mus musculus, BaF3; BaF/3 V617F, absence of IL-3
Description: as §1

[12] = test system: BaF/3-EPOR cells expressing JAK2 wild-type; test: Proliferation inhibition assay (WST-1); type: cell-based, murine; details: Mus musculus; BaF/3-EPOR WT; EPO in culture medium
Description: as §1

[13] = test system: BaF/3-EPOR cells expressing JAK2V617F; test: Proliferation inhibition assay (WST-1); type: cell-based, murine
Description: as §1

[14] = test system: UKE-1 cells; test: Clonogenic assay; type: cell-based; details: compared with K562
[15] = test system: CD34+ cells from MPN patients; test: Clonogenic assay with JAK2V617F single-colony genotyping; type: cell-based, human; details: for % decrease V617F: RAD001 50 nM vs without
Procedure: Samples of peripheral blood (PB) or bone marrow (BM) were obtained from patients diagnosed with PV or PMF (2008 WHO criteria) under a protocol approved by Institutional Review Board of Azienda Ospedaliera-Universitaria Careggi and after obtaining an informed consent. Healthy donors of hematopoietic stem cells provided informed consent to donate excess CD34^+ cells. Research was carried out according to the principles of Declaration of Helsinki. CD34^+ cells were immunomagnetically selected as described. The JAK2V617F mutational status was determined by a quantitative real-time PCR assay in granulocytes.
BM mononuclear cells from MPN patients or control subjects were plated at 1×10^5/mL in methylcellulose (MethoCult; StemCell Technologies, Vancouver, Canada) supplemented with SCF 50 ng/mL, IL-3 10 ng/mL, IL-6 10 ng/mL, GM-CSF 10 ng/mL, G-CSF 10 ng/mL and EPO 3 U/mL for the growth of BFU-E and CFU-GM. EEC assay was performed by plating 2.5×10^5/mL PB mononuclear cells from PV patients in methylcellulose containing leukocyte-conditioned medium without EPO (StemCell Technol., cat. No. #04531). For the growth of CFU-Mk, 5×10^4/mL CD34^+ cells were plated in a 24-well plate in Megacult Collagen and medium with lipids (StemCell Technol.) supplemented with Thrombopoietin 50 ng/mL, IL-3 10 ng/mL, IL-6 10 ng/mL. Colonies were enumerated on day 14 according to standard criteria.
For JAK2V617F single-colony genotyping an allele-specific PCR assay was used. Well-separated colonies (at least 40 colonies per point) were individually plucked off the semisolid medium in 5 μL DNase/RNase-free water, lysed at 95° C. for 5 minutes, and subjected to PCR amplification and gel electrophoresis.

[16] = test system: SET2 cells; test: Cell cycle distribution analysis by flow cytometry; type: cell-based, human; details: at IC50 concentration
[17] = test system: HEL cells; test: Cell cycle distribution analysis by flow cytometry; type: cell-based, human; details: at IC50 concentration
[18] = test system: 4E-BP1 and STAT5 in Ba/F3 and Ba/F3-EPOR cells; test: Western blot of 4E-BP1 and STAT5 phosphorylation; type: cell-based, murine
Procedure: as §2
To better characterize the correlation between JAK2V617F mutation and mTOR activation, as well as the consequences of mTOR inhibition on STAT5 phosphorylation, BA/F3 and Ba/F3-EPOR cells were used. First, it was observed that 4E-BP1 was minimally phosphorylated in JAK2 wt Ba/F3 and Ba/F3-EPOR cells deprived of cytokines, while it was hyper-phosphorylated in V617F cells, supporting previous data on Akt constitutive activation in JAK2V617F-mutated cells. […] STAT5 phosphorylation was greater in V617F cells compared to IL-3- or EPO-deprived JAK2 wt Ba/F3 or Ba/F3-EPOR cells, and it did increase substantially after cytokine exposure.

[19] = test system: Ba/F3 JAK2 V617F cells; test: Clonogenic assay in agar; details: Mus musculus, BaF3, 168 h, read-out: IC50, clonogenic assay
[20] = test system: Ba/F3 epoR JAK2 wild-type cells; test: Clonogenic assay in agar; details: Mus musculus, BaF3, 168 h, read-out: IC50, clonogenic assay
[21] = test system: Ba/F3 epoR JAK2 V617F cells; test: Clonogenic assay in agar; details: Mus musculus
[22] = Homo sapiens, SET-2, read-out: IC50 of Cmp A in drug combination with PP242
[23] = Homo sapiens, SET-2, read-out: IC50 of Cmp A in drug combination with RAD001
[24] = SET2, 24 h, increasing concentrations
[25] = Homo sapiens, SET-2, SET2, individual drug, read-out: IC50, proliferation inhibition

N#CC[C@H](C1CCCC1)n1cc(-c2ncnc3[nH]ccc23)cn1 [Compound A, (3R)-3-cyclopentyl-3-[4-(7H-pyrrolo[2,3-d]pyrimidin-4-yl)-1H-pyrazol-1-yl]propanenitrile]
IC50 [1, 22]: 0.047 µM
IC50 [1, 23]: 0.029 µM
IC50 ([2]; PBMC, read-out: IC50, clonogenic potential (EEC)): 0.0018 ± 0.001 µM
IC50 ([2]; PBMC, read-out: IC50 of Cmp A in drug combination with PP242): 0.0001 µM
IC50 ([2]; PBMC, read-out: IC50 of Cmp A in drug combination with RAD001): 0.0002 µM
cell apoptosis (Annexin V-positive cells) [3]: dose-dependently potent inducers of cell apoptosis; also recorded: potently induced cell apoptosis
phosphorylated JAK2 [4]: markedly and dose-dependently reduced phosphorylation
phosphorylation of 4E-BP1 [4]: unaffected
phosphorylation of STAT5 [4]: markedly and dose-dependently reduced phosphorylation
IC50 [5]: > 15 µM
IC50 [6]: 0.374 ± 0.177 µM
IC50 [7, 22]: 0.0076 µM
IC50 [7, 23]: 0.004 µM

NC(=O)NO [HuOH, hydroxyurea]
IC50 [8]: 410 µM
IC50 [9]: 4910 µM
IC50 ([1]; SET2, read-out: IC50, proliferation inhibition): 330 µM
cell apoptosis (Annexin V-positive cells) [3]: induced dose-dependent cell apoptosis
phosphorylation of 4E-BP1 [4, 24]: did not affect
phosphorylation of STAT5 [4, 24]: did not affect

Cc1[nH]c2ccccc2c1CCNCc1ccc(/C=C/C(=O)NO)cc1 [Panobinostat]
IC50 ([8]; Homo sapiens): 0.008 ± 0.003 µM
IC50 ([9]; Homo sapiens): 0.031 ± 0.008 µM
IC50 [1, 25]: 0.007 ± 0.002 µM

CO[C@H]1C[C@@H]2CC[C@@H](C)[C@@](O)(O2)C(=O)C(=O)N2CCCC[C@H]2C(=O)O[C@H]([C@H](C)C[C@@H]2CC[C@@H](OCCO)[C@H](OC)C2)CC(=O)[C@H](C)/C=C(\C)[C@@H](O)[C@@H](OC)C(=O)[C@H](C)C[C@H](C)/C=C/C=C/C=C/1C [RAD001, Everolimus]
IC50 ([8]; Homo sapiens): 14 µM
IC50 ([9]; Homo sapiens): 16 µM
IC50 ([1]; Homo sapiens, SET-2, read-out: IC50 of the mTOR inhibitor in drug combination with Cmp A): 0.0031 µM
IC50 [1, 25]: 17 µM
IC50 [10]: 2.6 µM
IC50 [11]: 0.01 ± 0.004 µM
IC50 [12]: > 10 µM
IC50 ([13]; BaF/3-EPOR V617F + EPO, read-out: IC50, proliferation inhibition): 1.23 µM
IC50 ([13]; BaF/3-EPOR V617F, absence of EPO, individual drug, read-out: IC50, proliferation inhibition): 0.651 ± 0.05 µM
IC50 ([13]; Mus musculus, BaF/3-EPOR V617F + EPO, read-out: IC50, proliferation inhibition): 1.21 µM
IC50 ([13]; Mus musculus, JAK2V617F Ba/F3-EPOR, proliferation, median of at least 3 experiments, read-out: IC50 of the mTOR inhibitor in drug combination with Cmp A): 0.363 µM
clonogenic potential [14]: impaired the clonogenic potential
IC50 ([2]; PBMC, read-out: IC50 of the mTOR inhibitor in drug combination with Cmp A): 0.0019 µM
IC50 ([2]; PBMC from PV patients, individual drug, read-out: IC50, clonogenic potential (EEC)): 0.015 ± 0.01 µM
JAK2 genotype V617F colonies (%) ([15]; Pat. # 1, RAD001 50 nM): 6%
JAK2 genotype Wild-type colonies (%) ([15]; Pat. # 1, RAD001 50 nM): 94%
% decrease V617F ([15]; Pat. # 1): 70%
JAK2 genotype V617F colonies (%) ([15]; Pat. # 2, RAD001 50 nM): 40%
JAK2 genotype Wild-type colonies (%) ([15]; Pat. # 2, RAD001 50 nM): 60%
% decrease V617F ([15]; Pat. # 2): 15%
JAK2 genotype V617F colonies (%) ([15]; Pat. # 3, RAD001 50 nM): 57%
JAK2 genotype Wild-type colonies (%) ([15]; Pat. # 3, RAD001 50 nM): 43%
% decrease V617F ([15]; Pat. # 3): 21%
JAK2 genotype V617F colonies (%) ([15]; Pat. # 4, RAD001 50 nM): 40%
JAK2 genotype Wild-type colonies (%) ([15]; Pat. # 4, RAD001 50 nM): 58%
% decrease V617F ([15]; Pat. # 4): 17%
JAK2 genotype V617F colonies (%) ([15]; Pat. # 5, RAD001 50 nM): 9%
JAK2 genotype Wild-type colonies (%) ([15]; Pat. # 5, RAD001 50 nM): 91%
% decrease V617F ([15]; Pat. # 5): 72%
% decrease V617F, Mean ± SD ([15]; mean of 5 patients, RAD001 50 nM): 39% and 39 ± 29%
cell apoptosis (Annexin V-positive cells) [3]: largely ineffective in inducing cell death; also recorded: did not induce cell death
cell cycle effect [16]: cell cycle arrest of SET2 and HEL cells in the G0/G1 phase
cell cycle effect [17]: cell cycle arrest of SET2 and HEL cells in the G0/G1 phase
phosphorylated JAK2 [4, 24]: unaffected
phosphorylation of 4E-BP1 [4, 24]: dose-dependently reduced phosphorylation; also recorded: inhibited the phosphorylation
phosphorylation of STAT5 [4, 24]: dose-dependently reduced phosphorylation; also recorded: appreciable decrease of STAT5 phosphorylation
total JAK2 [4, 24]: unaffected
STAT5 phosphorylation ([18]; evident at 60 min, up to 24 h, not shown): significantly downregulated
4E-BP1 phosphorylation ([18]; persisted up to at least 24 h, data not shown): marked inhibition
IC50 [5]: 10 µM
IC50 [6]: 0.085 ± 0.03 µM
IC50 ([7]; Homo sapiens, SET-2, read-out: IC50 of the mTOR inhibitor in drug combination with Cmp A, SET2, clonogenic agar assay, median of at least 3 experiments): 0.007 µM
IC50 ([7]; read-out: IC50, clonogenic assay, SET2, colonies day 7, individual drug): 0.13 µM and 0.044 µM
IC50 [19]: 0.006 ± 0.002 µM
IC50 [20]: 0.022 ± 0.01 µM
IC50 ([21]; BaF3, 168 h, read-out: IC50, clonogenic assay): 0.004 ± 0.002 µM
IC50 ([21]; BaF3, read-out: IC50 of the mTOR inhibitor in drug combination with Cmp A): 0.0011 µM
